Earlier results in patent US20240000727A1, “STABLE COATED SOLID PHARMACEUTICAL COMPOSITION OF AN OPIOID ANALGESIC AND AN ANTI-EPILEPTIC FOR PAIN” (LABORATORIOS SILANES S.A. DE C.V., priority 2020, published 2024).

Test system: moderate to severe postoperative pain
Conditions: intravenous or intramuscular; patients with moderate to severe postoperative pain

COc1cccc([C@@]2(O)CCCC[C@@H]2CN(C)C)c1 [tramadol, (1R,2R)-2-[(dimethylamino)methyl]-1-(3-methoxyphenyl)cyclohexan-1-ol]
Potency relative to nalbuphine: one-fifth as potent
Potency relative to pethidine (meperidine): equivalent
